Assay results as given in US9115212B2, “Bifunctional peptide” (REGENTIS INTERNATIONAL, priority 2012, dated 2015).
Where a SMILES comes first, the peptide text is derived from it.

Key:
[1] = system: type I collagen; experiment: Protein expression of type I collagen in dermal fibroblasts (Western Blot, ImageJ); type: cell-based, human; settings: peptide 100 μg/ml, vs untreated control
Procedure: (§1) The dermal fibroblasts were isolated from abdomen skin biopsies obtained during surgery operations performed on healthy patients between 35 and 75 years of age.
(§2) After removing the epidermis, the fibroblasts were recovered by enzymatic digestion, then were cultured at 37° C. in DMEM (Dulbecco's Modified Eagle Medium) medium supplemented with 10% fetal calf serum and 1% penicillin/streptomycin.
(§3) The fibroblasts were then treated with the peptide having sequence […] (SEQ. ID NO. 1), or various fragments of this sequence, at a concentration of 100 μg/ml. The various fragments tested are as follows: • peptide 1 (pept 1): peptide having the sequence […] (SEQ. ID NO. 1), • peptide 2 (pept 2): sequence […] (SEQ. ID NO. 1), wherein N-terminal and C-terminal ends correspond to N and OH, respectively • peptide 3 (pept 3): (VGVAPG (SEQ. ID NO: 29))3, wherein N-terminal and C-terminal ends correspond to N and OH, respectively • peptide 4 (pept 4): RVRLIL (SEQ. ID NO. 32, wherein N-terminal and C-terminal ends correspond to N and OH, respectively • peptide 5 (pept 5): N-Gly-Ile-Leu-OH
The protein expression of the type I collagen and the type III collagen has then been shown by Western Blot and quantified by ImageJ. The results are shown respectively in the attached FIGS. 3A and 3B. The control (Ctrl) corresponds to the expression of type I and III collagen at the level of cells not treated with peptides. The experiments were performed in triplicate.

[2] = system: type I and type III collagen; experiment: Collagen expression depending on the age of the patients; type: cell-based, human; settings: dermal fibroblasts from patients
Procedure: Dermal fibroblasts from younger or older patients were cultured and the bifunctional peptide according to the invention having the sequence […] (SEQ. ID NO. 1) has been tested as to the protein and gene expression of type I and type III collagen. The results obtained as regards the protein expression of the two types of collagen are visible in FIG. 5.

[3] = system: toxicity genes; experiment: Toxicity genes through the SAM (Significance Analysis of Microarrays) statistical approach; type: cell-based
Procedure: (§4) According to an embodiment, the bifunctional peptide is used preferably at a concentration substantially between 10 μg/ml and 1 mg/ml. Indeed, no toxicity of the peptide according to the invention has been observed on dermal fibroblasts treated with peptide concentrations up to 1 mg/ml. In addition, studies conducted in order to find the toxicity genes through the SAM (Significance Analysis of Microarrays) statistical approach have shown that the cell death, the disruption of the conjunctive tissue and the tumor invasion are induced only from a high concentration of bifunctional peptide, higher than 1 mg/ml.

[4] = biological target: T1, MMP-1 (Homo sapiens, UniProt P03956); experiment: MMP-1 activity on natural substrate, collagen fibers of human dermis (cuts of skin, immunostaining); settings: APMA-activated MMP-1, peptide 100 μg/ml, 3 h
T1 sequence (P03956 100-469): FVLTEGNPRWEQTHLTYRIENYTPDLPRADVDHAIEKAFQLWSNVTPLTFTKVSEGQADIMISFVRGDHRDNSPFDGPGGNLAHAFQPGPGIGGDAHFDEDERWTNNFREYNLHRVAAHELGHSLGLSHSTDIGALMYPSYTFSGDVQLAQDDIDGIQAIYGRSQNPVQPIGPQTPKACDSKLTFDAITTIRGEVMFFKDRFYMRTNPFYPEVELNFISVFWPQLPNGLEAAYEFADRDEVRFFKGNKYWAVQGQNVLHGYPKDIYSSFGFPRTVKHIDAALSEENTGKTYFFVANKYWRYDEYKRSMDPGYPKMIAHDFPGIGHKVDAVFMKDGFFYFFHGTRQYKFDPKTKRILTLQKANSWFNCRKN
Procedure: The effects of the peptide according to the invention were also tested on the activity of the MMP-1 in the presence of its natural substrate, i.e. the collagen fibers of human dermis.
To this end, the MMP-1 has previously been activated by APMA (4-aminophenylmercuric acetate) at 20 mM for 1 h30 at 37° C. The so activated MMP-1 was then deposited on cuts of skin having a thickness of 5μ in the presence or absence of the peptide according to the invention (100 μg/ml). After 3 h, the cuts of skin were immunostained, in order to reveal the presence of type I and III collagen, then observed by confocal microscopy. […] On the other hand, in the presence of the bifunctional peptide, the action of said MMP-1 was inhibited; indeed, the collagens I and III were detected.

[5] = system: dermal fibroblasts; experiment: Toxicity on dermal fibroblasts; type: cell-based; settings: peptide concentrations up to 1 mg/ml
Procedure: as §4

[6] = biological target: T2, urokinase (Homo sapiens, UniProt P00749); experiment: Cleavage of the bifunctional peptide by the urokinase (HPLC); settings: excess of urokinase, peptide 0.45 mM
Procedure: At the pericellular level, an excess of urokinase was observed, of about 10^−4 M. The peptide could thus be cleaved by the urokinase, the latter acting in particular at the level of the arginine residues (Arg) of the portion B of the peptide according to the invention.
Studies were conducted by HPLC on a Chromolith Jupiter C18 column (50×4.6 mm), and applying a linear gradient of 0.1% TFA of acetonitrile in 0.1% TFA of water, 0 to 100% for 100 min. […] However, after the action of an excess of urokinase on the bifunctional peptide (0.45 mM), the spectral peak was different; indeed, the new peak was eluted at 20 min, thus characterizing a cleavage of the bifunctional peptide by the urokinase (FIG. 8B).

[7] = system: COL1A1 gene; experiment: Gene expression of COL1A1 in fibroblast cultures (real-time PCR); type: cell-based, human; settings: fibroblasts, 100 μg/ml, 24 h, normalised to GAPDH
Procedure: (§5) The gene expression of the type I and III collagens in cultures of fibroblasts was also tested in the presence of the different peptides (pept 1 to pept 5) at a concentration of 100 μg/ml.
(§6) After 24 h of treatment with different peptides, the RNAs were extracted from the cultures using a RNeasy® kit (QIAGEN), then re-transcribed into complementary DNAs (cDNAs) using the RT2 First Strand Kit from SABiosciences™.
(§7) Real-time PCR analyses were then performed using the Mx3000p thermocycler from Stratagene in a 96-well plate. Each sample was analyzed in triplicate. The CDNAs serve as matrices in a reaction mixture containing the RT2 SYBR® Green/ROX™ qPCR Master Mix reagents (SABiosciences™) and the sense and antisense primers specific for the gene to be amplified. The reading of the fluorescence was performed at the end of each cycle and analyzed by means of the MxPro software (Stratagene). The relative expression of the COL1A1 and COL3A1 genes of interest coding for type I and type III collagen was obtained by normalizing the amount of products for amplifying the gene being studied by the amount of DNA amplified from a “domestic” gene, in this case the RNA of the gene encoding for the glyceraldehyde-3-phosphate dehydrogenase (GAPDH). As from the number of cycles corresponding to an amplification with a 100% efficiency, the relative quantity of cDNAs studied was calculated using the 2-AACT method (Livak & Schmittgen, 2001).
(§8) The control (Ctrl) corresponds to the expression of the genes coding for both types of collagen when the fibroblasts are not treated.

[8] = system: COL3A1 gene; experiment: Gene expression of COL3A1 in fibroblast cultures (real-time PCR); type: cell-based, human; settings: fibroblasts, 100 μg/ml, 24 h; for gene expression of type III collagen (COL3A1): normalised to GAPDH
Procedure: as §5, §6, §7, §8

[9] = system: type III collagen; experiment: Protein expression of type III collagen in dermal fibroblasts (Western Blot, ImageJ); type: cell-based, human; settings: peptide 100 μg/ml
Procedure: as §1, §2, §3
The protein expression of the type I collagen and the type III collagen has then been shown by Western Blot and quantified by ImageJ. The results are shown respectively in the attached FIGS. 3A and 3B. […]

[10] = biological target: T2, urokinase; experiment: Urokinase activity on synthetic substrate S2444; type: biochemical
Procedure: The activity of the urokinase on its synthetic substrate, D-Glu-Gly-Arg+NHPhNO2 L-Pyroglutamyl-glycyl-L-arginine-p-Nitroaniline hydrochloride (2444) has been tested in the presence and absence of the peptide according to the invention at different concentrations.
A kinetics of hydrolysis of the substrate S2444 […] by the urokinase (9.25*10^−6 mM) was carried out in the presence of the bifunctional peptide having the sequence […] (SEQ. ID NO. 1) and concentrated at 10^−3, 10^−4 and 10^−5 M for 1 hour. The control corresponds to the kinetics in the absence of peptide. The enzyme activity was evaluated by measuring the absorbance (DO) at 405 nm every 5 minutes for a period of 35 min.
FIG. 6B is a graphical representation of the dose/effect relationship between the activity of the urokinase and the concentration of the bifunctional peptide used at time 15 min. The dotted line in the figure permits to determine the IC50, i.e. the peptide concentration required to reduce the activity of the urokinase by 50%.

[11] = biological target: T1, MMP-1; experiment: MMP-1 activity on synthetic substrate DNP-Pro-Cha-Gly-Cys (Me)-His-Ala-Lys (N-Me-Abz)-NH2; type: biochemical
Procedure: The substrate of the MMP-1 that was used to test its activity in the presence of the peptide is a synthetic substrate, DNP-Pro-Cha-Gly-Cys (Me)-His-Ala-Lys (N-Me-Abz)-NH2.
A concentration of 80 ng/μl of MMP-1 was brought in the presence of 0.4 ng/μl of synthetic substrate, in the presence or not of bifunctional peptide concentrated at 10^−3, 10^−4 and 10^−5 M for 1 h.
More particularly, FIG. 7A represents a kinetics of hydrolysis of the synthetic substrate of the MMP-1 in the presence or absence (control) of the peptide at different concentrations. The enzymatic activity of the MMP-1 was evaluated by measuring the absorbance (DO) at 465 nm every 5 minutes for a period of 35 min.
FIG. 7B is a graphical representation of the dose-effect relationship between the activity of the MMP-1 and the concentration of bifunctional peptide used at time 15 min.
The Gly-Ile-Leu (GIL) sequence was selected by the inventors for its capability of occupying the P′1, P′2 and P′3 pockets of type I collagenase, the MMP-1. The activity of the latter has been tested on the synthetic substrate, the DNP-Pro-Cha-Gly-Cys (Me)-His-Ala-Lys(N-Me-Abz)-NH2, in the presence or absence of the peptide 5 having the Gly-Ile-Leu (GIL) sequence at concentrations of 10^−5, 10^−4 and 10^−3 M.

| Molecule | stimulation of the protein expression of the type I collagen [1] | action on the synthesis of collagen depending on the age of the patients [2] | concentration from which cell death, disruption of the conjunctive tissue and tumor invasion are induced [3] | action of MMP-1 on collagens I and III of cuts of skin [4] | toxicity on dermal fibroblasts [5] | cleavage by urokinase [6] | gene expression of type I collagen (COL1A1) [7] | gene expression of type III collagen (COL3A1) [8] | synthesis of type III collagen (gene expression) with respect to cells treated with peptide 3 ([8]; relative to peptide 3) | increase in the synthesis of type III collagen compared to fibroblasts treated with pept 3 ([9]; relative to pept 3) [%] | production of type III collagen ([9]; vs untreated control) | mode of urokinase inhibition [10] | effect on the activity of the MMP-1 on its synthetic substrate ([11]; 10^−5, 10^−4 and 10^−3 M) | IC50 ([11]; synthetic substrate, time 15 min, read-out: IC50 MMP-1 activity, peptide concentration (converted)) [µM] |
| --- | --- | --- | --- | --- | --- | --- | --- | --- | --- | --- | --- | --- | --- | --- |
| CC[C@H](C)[C@H](NC(=O)CNC(=O)[C@H](CC(C)C)NC(=O)[C@H](CCCNC(=N)N)NC(=O)[C@@H](NC(=O)[C@H](CCCNC(=N)N)NC(=O)CNC(=O)[C@@H]1CCCN1C(=O)[C@H](C)NC(=O)[C@@H](NC(=O)[C@H](C)NC(=O)[C@@H](NC(=O)CNC(=O)[C@@H]1CCCN1C(=O)[C@H](C)NC(=O)[C@@H](NC(=O)[C@H](C)NC(=O)[C@@H](NC(=O)CNC(=O)[C@@H]1CCCN1C(=O)[C@H](C)NC(=O)[C@@H](NC(=O)CNC(=O)[C@@H](N)C(C)C)C(C)C)C(C)C)C(C)C)C(C)C)C(C)C)C(C)C)C(=O)N[C@@H](CC(C)C)C(=O)O [pept 1] (H-VGVAPGVAVAPGVAVAPGRVRLGIL-OH) | 30% | greater when the fibroblasts proceed from older patients | higher than 1 mg/ml | inhibited | no toxicity | cleavage | stimulate | stimulate | increase | 36 | more than doubled | competitive inhibitor | – | – |
| CC[C@H](C)[C@H](NC(=O)CN)C(=O)N[C@@H](CC(C)C)C(=O)O [pept 5, N-Gly-Ile-Leu-OH] (H-Gly-Ile-Leu-OH) | do not permit the stimulation | – | – | – | – | – | no effect | no effect | – | – | – | – | decreases in a dose-dependent way | 70.7 |
| (VGVAPG (SEQ. ID NO: 29))3 [pept 3] | 30% | – | – | – | – | – | stimulate | stimulate | – | – | – | – | – | – |
| RVRLIL [pept 4, ID NO; 32] | do not permit the stimulation | – | – | – | – | – | no effect | no effect | – | – | – | – | – | – |
| VGVAPGVAVAPGVAVAPGRVRLGIL [pept 2] | 30% | – | – | – | – | – | stimulate | stimulate | – | – | – | – | – | – |
